Literature values, collected in patent US20040176378A1, “Compositions of a cyclooxygenase-2 selective inhibitor and an amphetamine for the treatment of reduced blood flow to the central nervous system” (Pharmacia Corporation, priority 2003, published 2004).

Key:
[1] = tested on: human stroke victims; settings: coupled with physical therapy, compared to stroke victims receiving only physical therapy
[2] = tested on: infarcted rats

CC(N)Cc1ccccc1 (centres unmarked) [amphetamine]
motor recovery [1]: accelerated motor recovery | alternative circuit activation [2]: promoted alternative circuit activation
